In ChEMBL document CHEMBL1147166, “Structure-activity relationships of methoctramine-related polyamines as muscarinic antagonist: effect of replacing the inner polymethylene chain with cyclic moieties” (Bioorg Med Chem, 2007):

Legend:
[1] = biological target: T1, Muscarinic acetylcholine receptor M2 (Homo sapiens) (UniProt P08172); assay: Antagonist potency at muscarinic receptor M2 in guinea pig atrium; format: functional, tissue-based; conditions: Cavia porcellus; Cardiac atrium; target entry is the homologue from another species
T1 sequence (whole entry): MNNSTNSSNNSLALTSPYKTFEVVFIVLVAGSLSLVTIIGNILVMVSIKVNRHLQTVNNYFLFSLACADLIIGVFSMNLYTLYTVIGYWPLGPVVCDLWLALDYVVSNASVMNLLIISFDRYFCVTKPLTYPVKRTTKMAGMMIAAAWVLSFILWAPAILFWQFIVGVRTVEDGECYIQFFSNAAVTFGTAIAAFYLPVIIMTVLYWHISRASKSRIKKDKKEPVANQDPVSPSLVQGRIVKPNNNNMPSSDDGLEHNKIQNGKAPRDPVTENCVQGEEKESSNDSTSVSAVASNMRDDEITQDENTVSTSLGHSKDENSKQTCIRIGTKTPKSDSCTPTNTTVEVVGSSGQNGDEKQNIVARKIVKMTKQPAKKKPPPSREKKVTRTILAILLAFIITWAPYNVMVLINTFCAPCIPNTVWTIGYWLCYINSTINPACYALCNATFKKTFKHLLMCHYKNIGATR

[2] = biological target: Muscarinic acetylcholine receptor M3 (Cavia porcellus) (UniProt Q8VH26); assay: Antagonist potency at muscarinic receptor M3 in guinea pig ileum; format: functional, tissue-based
[3] = biological target: T2, Muscarinic acetylcholine receptor M4 (Homo sapiens) (UniProt P08173); assay: Antagonist potency at muscarinic receptor M4 in rabbit vas deferens; format: functional, tissue-based; conditions: Oryctolagus cuniculus, target entry is the homologue from another species
T2 sequence (whole entry): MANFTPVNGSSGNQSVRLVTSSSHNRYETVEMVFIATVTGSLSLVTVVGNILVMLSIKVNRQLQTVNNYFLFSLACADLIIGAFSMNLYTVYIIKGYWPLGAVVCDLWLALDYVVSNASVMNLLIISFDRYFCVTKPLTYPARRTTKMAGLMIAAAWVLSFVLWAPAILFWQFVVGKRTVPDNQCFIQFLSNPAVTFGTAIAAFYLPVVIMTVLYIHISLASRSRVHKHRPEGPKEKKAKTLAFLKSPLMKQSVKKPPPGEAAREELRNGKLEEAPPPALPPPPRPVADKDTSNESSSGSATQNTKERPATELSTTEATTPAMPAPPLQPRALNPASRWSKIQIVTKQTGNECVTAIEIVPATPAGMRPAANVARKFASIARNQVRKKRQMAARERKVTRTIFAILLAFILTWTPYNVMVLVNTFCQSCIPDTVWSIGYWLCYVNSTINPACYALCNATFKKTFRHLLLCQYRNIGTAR

Mus musculus [4] = assay: Antinociceptive activity in mouse assessed as licking latency at 0.01 ug, icv after 15 mins by hot plate method; format: functional
Mus musculus [5] = assay: Antinociceptive activity in mouse assessed as licking latency at 0.05 ug, icv after 45 mins by hot plate method; format: functional
Mus musculus [6] = assay: Antinociceptive activity in mouse assessed as licking latency at 0.005 ug, icv after 30 mins by hot plate method; format: functional
Mus musculus [7] = assay: Antinociceptive activity in mouse assessed as licking latency at 0.05 ug, icv after 30 mins by hot plate method; format: functional
Mus musculus [8] = assay: Antinociceptive activity in mouse assessed as licking latency at 0.05 ug, icv after 15 mins by hot plate method; format: functional
Mus musculus [9] = assay: Antinociceptive activity in mouse assessed as licking latency at 0.005 ug, icv after 60 mins by hot plate method; format: functional
[10] = biological target: T3, Muscarinic acetylcholine receptor M4 (Homo sapiens, UniProt P08173); assay: Displacement of [3H] N-methyl-scopolamine chloride from human muscarinic receptor M4 expressed in CHO cells; format: cell-based
T3 sequence (P08173 whole entry): T2 sequence (whole entry)

Mus musculus [11] = assay: Antinociceptive activity in mouse assessed as licking latency at 1.0 ug, icv after 30 mins by hot plate method; format: functional
Mus musculus [12] = assay: Antinociceptive activity in mouse assessed as licking latency at 1.0 ug, icv after 45 mins by hot plate method; format: functional
[13] = biological target: Muscarinic acetylcholine receptor M3 (Homo sapiens, UniProt P20309); assay: Displacement of [3H] N-methyl-scopolamine chloride from human muscarinic receptor M3 expressed in CHO cells; format: cell-based
Mus musculus [14] = assay: Antinociceptive activity in mouse assessed as licking latency at 0.01 ug, icv after 30 mins by hot plate method; format: functional
Mus musculus [15] = assay: Antinociceptive activity in mouse assessed as licking latency at 0.01 ug, icv after 60 mins by hot plate method; format: functional
Mus musculus [16] = assay: Antinociceptive activity in mouse assessed as licking latency at 0.01 ug, icv after 45 mins by hot plate method; format: functional
Mus musculus [17] = assay: Antinociceptive activity in mouse assessed as licking latency at 1.0 ug, icv after 60 mins by hot plate method; format: functional
Mus musculus [18] = assay: Antinociceptive activity in mouse assessed as licking latency at 0.05 ug, icv after 60 mins by hot plate method; format: functional
Mus musculus [19] = assay: Antinociceptive activity in mouse assessed as licking latency at 0.005 ug, icv after 15 mins by hot plate method; format: functional
[20] = biological target: T4, Muscarinic acetylcholine receptor M1 (Homo sapiens, UniProt P11229); assay: Displacement of [3H] N-methyl-scopolamine chloride from human muscarinic receptor M1 expressed in CHO cells; format: cell-based
T4 sequence (P11229 whole entry): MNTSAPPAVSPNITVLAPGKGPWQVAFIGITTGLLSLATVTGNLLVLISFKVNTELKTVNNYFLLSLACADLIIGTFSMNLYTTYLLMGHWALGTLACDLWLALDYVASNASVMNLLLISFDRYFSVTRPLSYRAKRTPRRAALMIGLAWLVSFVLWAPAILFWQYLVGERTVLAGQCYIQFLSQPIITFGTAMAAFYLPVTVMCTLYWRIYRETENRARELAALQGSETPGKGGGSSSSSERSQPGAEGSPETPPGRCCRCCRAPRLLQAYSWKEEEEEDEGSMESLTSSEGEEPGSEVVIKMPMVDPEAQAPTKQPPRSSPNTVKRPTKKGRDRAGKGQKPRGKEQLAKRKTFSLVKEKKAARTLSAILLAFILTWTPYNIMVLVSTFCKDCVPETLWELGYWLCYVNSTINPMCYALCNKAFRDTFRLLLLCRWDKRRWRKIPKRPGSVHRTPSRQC

[21] = biological target: T5, Muscarinic acetylcholine receptor M5 (Homo sapiens, UniProt P08912); assay: Displacement of [3H] N-methyl-scopolamine chloride from human muscarinic receptor M5 expressed in CHO cells; format: cell-based
T5 sequence (P08912 whole entry): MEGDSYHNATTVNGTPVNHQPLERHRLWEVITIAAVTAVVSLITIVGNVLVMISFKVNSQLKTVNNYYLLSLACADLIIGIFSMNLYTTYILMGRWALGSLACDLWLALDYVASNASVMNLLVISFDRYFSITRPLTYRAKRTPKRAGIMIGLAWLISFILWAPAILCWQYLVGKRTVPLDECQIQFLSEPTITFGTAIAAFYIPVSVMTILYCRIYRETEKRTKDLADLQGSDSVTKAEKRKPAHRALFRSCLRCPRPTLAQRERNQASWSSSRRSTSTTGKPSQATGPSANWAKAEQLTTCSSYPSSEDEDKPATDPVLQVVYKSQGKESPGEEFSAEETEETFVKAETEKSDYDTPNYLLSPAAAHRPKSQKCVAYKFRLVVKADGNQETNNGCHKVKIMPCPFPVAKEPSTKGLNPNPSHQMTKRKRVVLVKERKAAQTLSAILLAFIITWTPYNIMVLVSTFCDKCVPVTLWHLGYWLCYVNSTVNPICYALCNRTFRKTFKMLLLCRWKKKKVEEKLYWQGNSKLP

Mus musculus [22] = assay: Antinociceptive activity in mouse assessed as licking latency at 1.0 ug, icv after 15 mins by hot plate method; format: functional
Mus musculus [23] = assay: Antinociceptive activity in mouse assessed as licking latency at 0.005 ug, icv after 45 mins by hot plate method; format: functional
Mus musculus [24] = assay: Antinociceptive activity in mouse assessed as licking latency at 1 mg/kg, ip by hot plate method; format: functional; conditions: route intraperitoneal
Acetylcholinesterase = Acetylcholinesterase (Homo sapiens, UniProt P22303); assay: Inhibition of human erythrocyte recombinant AchE after 20 mins
Cholinesterase = Cholinesterase (Homo sapiens, UniProt P06276); assay: Inhibition of human serum recombinant BChE after 20 mins
Mus musculus [25] = assay: Antinociceptive activity in mouse assessed as licking latency at 5 mg/kg, ip by hot plate method; format: functional; conditions: route intraperitoneal

Chain of Muscarinic acetylcholine receptor M3 (Cavia porcellus) (Q8VH26 1-587): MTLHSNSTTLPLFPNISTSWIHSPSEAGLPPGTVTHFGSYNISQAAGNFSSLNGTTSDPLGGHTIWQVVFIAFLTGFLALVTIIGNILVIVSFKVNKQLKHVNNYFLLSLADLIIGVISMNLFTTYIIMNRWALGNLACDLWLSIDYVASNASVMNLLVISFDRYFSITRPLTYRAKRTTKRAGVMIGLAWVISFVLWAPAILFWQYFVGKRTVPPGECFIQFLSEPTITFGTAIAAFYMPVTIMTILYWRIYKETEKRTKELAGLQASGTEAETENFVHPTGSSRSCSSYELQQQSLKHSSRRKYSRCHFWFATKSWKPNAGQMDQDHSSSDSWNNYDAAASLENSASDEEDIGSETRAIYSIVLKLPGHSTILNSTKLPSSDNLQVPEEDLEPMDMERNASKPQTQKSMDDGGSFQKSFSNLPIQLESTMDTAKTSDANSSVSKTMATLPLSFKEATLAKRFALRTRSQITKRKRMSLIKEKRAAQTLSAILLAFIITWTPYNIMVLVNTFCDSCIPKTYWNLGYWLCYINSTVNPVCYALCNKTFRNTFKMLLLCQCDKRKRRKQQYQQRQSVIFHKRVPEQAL
Chain of Cholinesterase (P06276 whole entry): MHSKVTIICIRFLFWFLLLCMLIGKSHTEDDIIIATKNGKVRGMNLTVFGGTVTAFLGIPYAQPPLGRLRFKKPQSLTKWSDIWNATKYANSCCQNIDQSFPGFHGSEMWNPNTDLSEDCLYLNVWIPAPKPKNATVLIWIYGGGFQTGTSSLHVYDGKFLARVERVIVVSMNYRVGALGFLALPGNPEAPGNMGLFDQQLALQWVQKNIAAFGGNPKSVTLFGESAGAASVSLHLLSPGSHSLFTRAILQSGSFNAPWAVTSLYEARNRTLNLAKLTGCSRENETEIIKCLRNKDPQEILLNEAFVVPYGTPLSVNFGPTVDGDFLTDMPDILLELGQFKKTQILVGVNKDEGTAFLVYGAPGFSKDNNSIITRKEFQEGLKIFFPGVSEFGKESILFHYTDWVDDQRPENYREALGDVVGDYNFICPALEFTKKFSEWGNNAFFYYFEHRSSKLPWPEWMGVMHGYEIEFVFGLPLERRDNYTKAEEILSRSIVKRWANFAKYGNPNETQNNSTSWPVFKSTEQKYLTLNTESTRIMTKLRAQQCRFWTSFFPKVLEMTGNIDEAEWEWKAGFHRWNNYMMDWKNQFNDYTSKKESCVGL
Chain of Muscarinic acetylcholine receptor M3 (P20309 whole entry): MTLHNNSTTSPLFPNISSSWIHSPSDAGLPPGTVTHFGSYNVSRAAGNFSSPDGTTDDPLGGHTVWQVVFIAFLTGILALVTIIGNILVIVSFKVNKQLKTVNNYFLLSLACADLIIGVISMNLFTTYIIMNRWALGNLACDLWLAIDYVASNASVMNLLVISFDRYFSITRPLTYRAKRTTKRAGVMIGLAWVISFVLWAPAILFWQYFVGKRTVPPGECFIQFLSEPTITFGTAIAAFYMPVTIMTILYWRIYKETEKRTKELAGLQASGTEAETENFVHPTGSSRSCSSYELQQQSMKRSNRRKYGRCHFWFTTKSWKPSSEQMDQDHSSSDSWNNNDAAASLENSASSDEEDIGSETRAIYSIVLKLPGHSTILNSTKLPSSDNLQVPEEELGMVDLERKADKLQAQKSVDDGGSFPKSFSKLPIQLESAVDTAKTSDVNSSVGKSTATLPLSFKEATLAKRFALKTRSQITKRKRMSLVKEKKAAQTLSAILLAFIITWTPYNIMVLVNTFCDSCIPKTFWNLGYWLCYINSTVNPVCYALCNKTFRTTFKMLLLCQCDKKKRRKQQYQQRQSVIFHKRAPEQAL
Chain of Acetylcholinesterase (P22303 whole entry): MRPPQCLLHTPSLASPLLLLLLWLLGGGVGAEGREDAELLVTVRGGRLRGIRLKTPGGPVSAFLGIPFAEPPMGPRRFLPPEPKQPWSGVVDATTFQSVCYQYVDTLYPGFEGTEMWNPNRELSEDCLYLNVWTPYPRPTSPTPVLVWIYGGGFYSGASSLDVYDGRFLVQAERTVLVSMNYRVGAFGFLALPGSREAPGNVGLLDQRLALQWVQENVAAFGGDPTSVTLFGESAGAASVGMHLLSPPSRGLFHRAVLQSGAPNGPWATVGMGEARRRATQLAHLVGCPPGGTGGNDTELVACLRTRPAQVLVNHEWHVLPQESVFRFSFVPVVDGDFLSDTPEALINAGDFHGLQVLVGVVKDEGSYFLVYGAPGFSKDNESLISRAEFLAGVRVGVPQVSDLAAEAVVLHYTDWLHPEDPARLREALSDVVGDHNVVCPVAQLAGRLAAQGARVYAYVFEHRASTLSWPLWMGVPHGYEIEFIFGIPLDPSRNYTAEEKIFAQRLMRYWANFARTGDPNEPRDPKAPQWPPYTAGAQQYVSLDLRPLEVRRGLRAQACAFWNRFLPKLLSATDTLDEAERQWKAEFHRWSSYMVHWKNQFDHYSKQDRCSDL

Structure (SMILES)	pKb [1]	pKb [2]	pKb [3]	also measured
COc1ccccc1CNCCCCCC(=O)N1CCC(CC2CCN(C(=O)CCCCCNCc3ccccc3OC)CC2)CC1	6.29	5.48	5.37	–
COc1ccccc1CNCCCCCCNc1ccc(CCc2ccc(NCCCCCCNCc3ccccc3OC)cc2)cc1	< 5	–	< 5.52	–
COc1ccccc1CNCCCCCCNc1ccc(Cc2ccc(NCCCCCCNCc3ccccc3OC)cc2)cc1	< 5	5.35	< 5	–
COc1ccccc1CNCCCCCC(=O)Nc1ccc(-c2ccc(NC(=O)CCCCCNCc3ccccc3OC)cc2)cc1	5.31	–	5.21	–
COc1ccccc1CNCCCCCCNCCCCCCCCNCCCCCCNCc1ccccc1OC [METHOCTRAMINE]	–	6.32	6.45	Time (Mus musculus [4]): 23.4 s; Time (Mus musculus [5]): 18.7 s; Time (Mus musculus [6]): 18.4 s; Time (Mus musculus [7]): 23.9 s; Time (Mus musculus [8]): 24.1 s; Time (Mus musculus [9]): 16.6 s; Ki [10]: 107 nM; Time (Mus musculus [11]): 21.3 s; Time (Mus musculus [12]): 17.5 s; Ki [13]: 525 nM; Time (Mus musculus [14]): 22.5 s; Time (Mus musculus [15]): 17.2 s; Time (Mus musculus [16]): 19.3 s; Time (Mus musculus [17]): 15.5 s; Time (Mus musculus [18]): 14.4 s; Time (Mus musculus [19]): 20.2 s; Ki [20]: 83.2 nM; Ki [21]: 550 nM; Time (Mus musculus [22]): 20.6 s; Time (Mus musculus [23]): 18.3 s
COc1ccccc1CNCCCCCC(=O)Nc1ccc(CCc2ccc(NC(=O)CCCCCNCc3ccccc3OC)cc2)cc1	< 5	< 5	< 5	–
C=CCN1CC[C@]23c4c5ccc(O)c4O[C@H]2C(=O)CC[C@@]3(O)[C@H]1C5 [NALOXONE]	–	–	–	Activity (Mus musculus [24]): 15.1 s
COc1ccccc1CNCCCCCC(=O)N1CCC(CCCC2CCN(C(=O)CCCCCNCc3ccccc3OC)CC2)CC1	5.11	5.09	< 5	–
COc1ccccc1CNCCCCCCNc1ccc(-c2ccc(NCCCCCCNCc3ccccc3OC)cc2)cc1	< 5	–	< 5	–
COc1ccccc1CNCCCCCC(=O)N1CCC(CCC2CCN(C(=O)CCCCCNCc3ccccc3OC)CC2)CC1	5.91	5.14	6.09	IC50 (Acetylcholinesterase): 135 nM; IC50 (Cholinesterase): 18600 nM
COc1ccccc1CNCCCCCCN1CCC(C2CCN(CCCCCCNCc3ccccc3OC)CC2)CC1	7.12	6.08	6.13	–
COc1ccccc1CNCCCCCCN1CCC(CC2CCN(CCCCCCNCc3ccccc3OC)CC2)CC1	7.16	5.82	5.39	–
COc1ccccc1CNCCCCCCN1CCC(CCCC2CCN(CCCCCCNCc3ccccc3OC)CC2)CC1	7.52	6.37	5.64	–
COc1ccccc1CNCCCCCC(=O)Nc1ccc(Cc2ccc(NC(=O)CCCCCNCc3ccccc3OC)cc2)cc1	5.47	5.32	< 5	–
CN1[C@@H]2CC[C@H]1C[C@@H](OC(=O)C(CO)c1ccccc1)C2 (some centres not stated) [ATROPINE]	–	–	–	Activity (Mus musculus [25]): 14.9 s
COc1ccccc1CNCCCCCC(=O)N1CCC(C2CCN(C(=O)CCCCCNCc3ccccc3OC)CC2)CC1	6.5	5.62	6	–
